Assays:
M. smegmatis mc^2 155 [1] = assay: Example IV: metabolic PG labeling of Msm with DBCO tags followed by azide fluorophore, flow cytometry; format: cell-based, Mycobacterium smegmatis; conditions: for cellular fluorescence with azide-modified fluorophore in cells pre-labeled with TetD: 25 μM TetD, fluorophore 1 h at 37° C.
Experimental: General method for bacterial peptidoglycan modification. M. smegmatis strains was inoculated from the glycerol stock to the according media and grown for 24 hours until 0.5-0.6 OD, tetrapeptide probes were added to the media and the cells were grown overnight to achieve stationary phase. The cells were harvested the next day and spun down for 2 min at 3000 g, washed with phosphate buffered saline with tween80 (PBST, PBS with 0.05% tween 80) two times and resuspended in PBST to yield DBCO-modified M. smegmatis cells for further labeling and other experiments.
(§1) DBCOtetra compared with stereo control and single amino acid DBCO. M. smegmatis mc^2 155 was inoculated from stationary phase in 1:100 dilution to a fresh 7H9 media with ADC. 25 μM Dap-DBCO, DBCOtetra or DBCOtera(L) were added to the culture tubes respectively, and the cells were grown for 36-40 hours until stationary phase. The cells were harvested and spun down for 2 min at 3000 g, washed with PBST two times and resuspended in PBST. To a 96-well plate added 100 μL cells pre well with 50 μM FAM-N3 in triplicate. The plate was incubated in 37° C. for 1 h and spun down for 2 min at 3000 g. The supernatant was decanted, and the pellets were washed with PBST for 2 times and fixed with 4% formaldehyde for 15 mins. The samples were then analyzed by Attune™ NxT Acoustic Focusing Cytometer.
as §1, with “Confirm for click chemistry on PG.” for “DBCOtetra compared with stereo control and single amino acid DBCO.”, “μM” for “μM Dap-DBCO,”, “FL-tetra” for “DBCOtera(L)”, “uL” for “μL”, “FAM-N3 or 5-carboxy fluorescein accordingly” for “FAM-N3”
as §1, with “Different concentrations of DBCOtetra.” for “DBCOtetra compared with stereo control and single amino acid DBCO.”, “ADC. 5 μM, 10 μM or” for “ADC.”, “μM” for “μM Dap-DBCO,”, “DBCOtetra” for “DBCOtetra or DBCOtera(L)”, “1h” for “1 h”
Different concentration of FAM-N3 and different time. M. smegmatis mc^2 155 was inoculated from stationary phase in 1:100 dilution to a fresh 7H9 media with ADC. 25 μM DBCOtetra were added to the culture tubes, and the cells were grown for 36-40 hours until stationary phase. The cells were harvested and spun down for 2 min at 3000 g, washed with PBST two times and resuspended in PBST. To a 96-well plate added 100 μL cells pre well with different concentration of FAM-N3 described in the main text, 9 wells each. […] The samples were then analyzed by Attune™ NxT Acoustic Focusing Cytometer. […]

[2] = tested on: WT S. aureus (ATCC 25923); format: cell-based, Staphylococcus aureus
Experimental: LB media containing 1 mM of D-LysAz were prepared. S. aureus ATCC 25923 cells supplemented with 0.1 μg/mL tunicamycin, S. aureus ΔtarO cells supplemented with 150 μg/mL spectinomycin, or S. aureus ATCC 25923 cells from overnight cultures were added to the medium (1:100 dilution) and allowed to grow overnight at 37° C. with shaking at 250 rpm. The cells were harvested at 4000 rpm and washed three times at the original culture volume with 1×PBS. Each strain was then treated with the DBCO-pegn-Fl library. All library members were used at a 25 μM concentration for 30 minutes at 37° C. and protected from light. The samples were subsequently harvested at 4000 rpm and washed three times with 1×PBS followed by fixation with 2% formaldehyde in 1×PBS for 30 minutes. The cells were washed once more to remove formaldehyde and then analyzed using the Attune NxT flow cytometer as described above.
LB media containing either 1 mM of D-LysAz, N^ε-azido-L-lysine hydrochloride (L-LysAz), or DMSO were prepared. S. aureus ATCC 25923 cells were added to the LB medium (1:100) and allowed to grow overnight at 37° C. with shaking at 250 rpm. The cells were harvested at 4000 rpm and washed three times at the original culture volume with 1×PBS. […] The cells were washed once more to remove formaldehyde and then analyzed using the Attune NxT flow cytometer as described above.

S. aureus (ΔtarO) = assay: Flow cytometry of D-cystine tagged WTA deletion strain treated with maleimide accessibility probes; format: cell-based, Staphylococcus aureus; conditions: 0.1 μg/mL tunicamycin, 25 μM Mal-Fl
Experimental: (§2) Flow cytometry analysis of S. aureus strains treated with Mal-pegn-Fl and Mal-pron-Fl libraries. LB media containing 1 mM of D-cystine were prepared. S. aureus ATCC 25923, S. aureus ATCC 25923 supplemented with 0.1 μg/mL tunicamycin, S. aureus ΔtarO supplemented with 150 μg/mL spectinomycin, USA300, or S. aureus SCO1 cells from overnight cultures were added to the medium (1:100 dilution) and allowed to grow overnight at 37° C. with shaking at 250 rpm. The cells were harvested at 4000 rpm and treated with 5 mM DTT at the original culture volume for 5 minutes, to reverse any thiol oxidation that may have occurred. The cells were harvested at 4000 rpm and washed twice at the original culture volume with 1×PBS to remove residual DTT. Each strain was then treated with both libraries, Mal-pegn-Fl and Mal-pron-Fl, in parallel. All library members were used at a 25 μM concentration for 30 minutes at 37° C. and protected from light. The samples were subsequently harvested at 4000 rpm and washed three times with 1×PBS followed by fixation with 2% formaldehyde in 1×PBS for 30 minutes. The cells were washed once more to remove formaldehyde and then analyzed using the Attune NxT flow cytometer as described above.
(§3) Tunicamycin scan. […] The cells were washed once more to remove formaldehyde and then analyzed using the Attune NxT flow cytometer as described above.

[3] = tested on: WT S. aureus (ATCC 25923); assay: Flow cytometry of D-cystine tagged S. aureus treated with Mal-pegn-Fl and Mal-pron-Fl accessibility probes, with or without tunicamycin; format: cell-based, Staphylococcus aureus; conditions: 0.001-0.1 μg/mL tunicamycin, 25 μM Mal-Fl
Experimental: as §2, §3

S. aureus (ΔclpX) = assay: DBCO-pegn-Fl library in clpX deletion strain; format: cell-based, Staphylococcus aureus; conditions: 1 mM D-LysAz, 25 μM probe, versus WT SA546
Experimental: TSB media containing 1 mM of D-LysAz were prepared. S. aureus SA546, ΔclpX, or ΔclpXΔltaS cells from overnight cultures were added to the medium (1:100 dilution) and allowed to grow overnight at 37° C. with shaking at 250 rpm. The cells were harvested at 4000 rpm and washed three times at the original culture volume with 1×PBS. Each strain was then treated with the DBCO-pegn-Fl library. All library members were used at a 25 μM concentration for 30 minutes at 37° C. and protected from light. The samples were subsequently harvested at 4000 rpm and washed three times with 1×PBS followed by fixation with 2% formaldehyde in 1×PBS for 30 minutes. The cells were washed once more to remove formaldehyde and then analyzed using the Attune NxT flow cytometer as described above.

S. aureus (ATCC 25923) = assay: Flow cytometry of S. aureus treated with thiol PG analogs / cystine enantiomers, then Mal-Fl; format: cell-based, Staphylococcus aureus; conditions: DTT 5 mM, 25 μM Mal-Fl
Experimental: Flow cytometry analysis of S. aureus treated with thiol analogue panel. LB media containing 1 mM of each respective thiol analogue or dimethyl sulfoxide (DMSO) were prepared. S. aureus ATCC 25923 cells from an overnight culture were added to the medium (1:100 dilution) and allowed to grow overnight at 37° C. with shaking at 250 rpm. The cells were harvested at 4000 rpm and treated with 5 mM dithiothreitol (DTT) at the original culture volume for 5 minutes, to reverse any thiol oxidation that may have occurred. The cells were harvested at 4000 rpm and washed twice at the original culture volume with 1× phosphate-buffered saline (PBS) to remove residual DTT. […] The cells were washed once more to remove formaldehyde and then analyzed using the Attune NxT flow cytometer equipped with a 488 nm laser and 525/40 nm bandpass filter. The data were analyzed using the Attune NXT Software.
Flow cytometry analysis of S. aureus treated with cystine enantiomers. […] The cells were washed once more to remove formaldehyde and then analyzed using the Attune NxT flow cytometer as described above.
The first goal was to identify which cysteine-based label would result in the highest level of thiol handles on the surface of S. aureus. […] Incubation of cells with D-cystine (2) led to a ˜12-fold increase in cellular fluorescence relative to DMSO treated cells. […]

M. smegmatis mc^2 155 [4] = assay: Ldt inhibition with meropenem (incorporation of TetD); format: cell-based, Mycobacterium smegmatis; conditions: 25 μM TetD, then Fl-az
Experimental: Ldt inhibition with meropenem. M. smegmatis mc^2 155 was inoculated from the glycerol stock by 1 to 1000 dilution to the according media and grown for 24 hours until 0.5-0.6 OD. 25 μM DBCOtetra were added to the media, and the cells were aliquoted to a 96-well culture plate with different concentration of meropenem described in the main text, in triplicate respectively. The cells were then grown overnight to achieve stationary phase. The cells were harvested and spun down for 2 min at 3000 g, washed with PBST two times and resuspended in PBST. To a 96-well plate added 100 uL cells pre well with 50 μM FAM-N3 accordingly transferred from the culture plate. The plate was incubated in 37° C. for 1 h and spun down for 2 min at 3000 g. The supernatant was decanted, and the pellets were washed with PBST for 2 times and fixed with 4% formaldehyde for 15 mins. The samples were then analyzed by Attune™ NxT Acoustic Focusing Cytometer.

Compound: N[C@H](CNC(=O)CCC(=O)N1Cc2ccccc2C#Cc2ccccc21)C(=O)O [D-DapD]
- PG labeling levels (fluorescence) above vehicle treated cells (M. smegmatis mc^2 155 [1]; Msm, metabolic label then Fl-az): ~40 fold

Compound: Cl.[N-]=[N+]=NNCCCC[C@H](N)C(=O)O [L-LysAz, N^ε-azido-L-lysine hydrochloride]
- cellular fluorescence after DBCO-Fl [2]: background fluorescence levels

Compound: [N-]=[N+]=Nc1ccc2c(c1)C1(OC2=O)c2ccc(N)cc2Oc2cc(N)ccc21 [rhodamine 110, 6-azido-rhodamine 110]
- cellular fluorescence with azide-modified fluorophore in cells pre-labeled with TetD (M. smegmatis mc^2 155 [1]): higher than Fl-az, albeit with a lower fold increase over unlabeled cells

Compound: tunicamycin
- effect of tunicamycin on ΔtarO cells (S. aureus (ΔtarO)): minimal additive effect
- effect of tunicamycin treatment on cellular fluorescence [3]: higher overall levels of cellular fluorescence in a concentration dependent manner

Compound: O=C(CCC(=O)N1Cc2ccccc2C#Cc2ccccc21)NCCOCCOCCOCCOCCOCCOCCOCCOCCOCCNC(=S)Nc1ccc(-c2c3ccc(=O)cc-3oc3cc(O)ccc23)c(C(=O)O)c1 [DBCO-peg9-Fl]
- increase in cellular fluorescence on co-incubation of cells with tunicamycin [2]: ~17 fold

Compound: O=C1OC2(c3ccc(O)cc3Oc3cc(O)ccc32)c2ccc(NC(=S)NCCC(=O)N3Cc4ccccc4C#Cc4ccccc43)cc21 [DBCO-Fl, fluorescein-DBCO]
- permeation of probe on deletion of clpX alone (S. aureus (ΔclpX)): did not lead to an increase

Compound: N[C@H](CSSC[C@@H](N)C(=O)O)C(=O)O [D-cystine]
- increase in cellular fluorescence relative to DMSO treated cells (S. aureus (ATCC 25923); 1 mM PG analog overnight): ~12 fold

Compound: C[C@@H](O)[C@H]1C(=O)N2C(C(=O)O)=C(S[C@@H]3CN[C@H](C(=O)N(C)C)C3)[C@H](C)[C@H]12 [meropenem]
- cellular fluorescence with increasing levels of meropenem in the presence of TetD (M. smegmatis mc^2 155 [4]): concentration dependent decrease in cellular fluorescence

Compound: [N-]=[N+]=Nc1ccc2c(c1)C1(OC2=O)c2ccc(O)cc2Oc2cc(O)ccc21 [Fl-az, 6-azido-fluorescein]
- cellular fluorescence with azide-modified fluorophore in cells pre-labeled with TetD (M. smegmatis mc^2 155 [1]): concentration-dependent and time-dependent increase in cellular fluorescence

Compound: N[C@@H](CSSC[C@H](N)C(=O)O)C(=O)O [L-cystine]
- cellular fluorescence compared to DMSO treated cells (S. aureus (ATCC 25923); 1 mM overnight): minimal increase

Reference: patent publication US20240401101A1, “A LIVE CELL ASSAY TO DETERMINE PERMEABILITY OF TEST MOLECULES TO AND/OR WITHIN THE PEPTIDOGLYCAN SCAFFOLD OF BACTERIA CELLS” (priority 2021, published 2024)
